For data set [1], the system named is Leishmania braziliensis axenic amastigotes. The data set can be described thus: In vitro antileishmanial activity against axenic amastigotes (MTT). The format is cell-based. The protocol:
To obtain the axenic amastigotes, 1 × 10^9 stationary promastigotes were washed three times in sterile phosphate-buffered saline (PBS) and incubated in 5 mL FBS for 48 h at 37 °C. Parasites were washed with cold PBS, and their morphology was evaluated with an optical microscope after Giemsa staining as previously described.
(§1) The in vitro antileishmanial activity was evaluated by incubating the promastigotes or axenic amastigotes (1 × 10^6 cells/well) with the 24 synthetic derivatives (Compounds 5–28; 0 to 600 µg/mL) in 96-well culture plates (Nunc, Nunclon, Roskilde, Denmark) for 48 h at 24 °C. Due to the difficulty in obtaining a high concentration of murine macrophages, the cytotoxicity experiment was evaluated by incubating such cells (5 × 10^5 per mL) with Compound 28 (0 to 600 µg/mL), which presented the best antileishmanial activity, for 48 h at 37 °C in a 5% CO2 environment. AmpB (0 to 10 µg/mL; Sigma-Aldrich, St. Louis, MO, USA) was used as a positive control in both experiments. The cell viability was assessed using the 3-(4.5-dimethylthiazol-2-yl)-2.5-diphenyl tetrazolium bromide (MTT, Sigma-Aldrich, St. Louis, MO, USA) method. The optical density (OD) values were read using a microplate spectrophotometer (Molecular Devices, Spectra Max Plus, San Jose, CA, USA) at 570 nm. Results were entered into Microsoft Excel (version 10.0) spreadsheets, and the 50% Leishmania and macrophage inhibitory concentrations (IC50 and CC50, respectively) were calculated by applying a sigmoidal regression of the dose–response curve. The SI was calculated by dividing the CC50 with the respective IC50 values.

In data set [2] the test system is Leishmania braziliensis stationary promastigotes. The data set can be described thus: In vitro antileishmanial activity against promastigotes (MTT). It counts as cell-based. The protocol: The study was approved by the Committee for the Ethical Handling of Research Animals from the Federal University of Minas Gerais (protocol number 085/2017). Leishmania braziliensis (MHOM/BR/1975/M2904) promastigotes were grown at 24 °C in Schneider’s medium (Sigma-Aldrich, USA) supplemented with 20% heat-inactivated fetal bovine serum (FBS, Sigma-Aldrich, USA) and 20 mmol/L L-glutamine at pH 7.4 [65].
as §1

Data set [3] relates to L. braziliensis promastigotes infecting murine macrophages. The data set can be described thus: Inhibition of infection (parasites pre-incubated with compound, then used to infect macrophages). The format is cell-based, Leishmania braziliensis. The settings on record: for Number of Amastigotes per Cell using pre-incubated parasites: untreated 8.9; for Percentage of Infected Macrophages Using Pre-Incubated Parasites: untreated 90.5. The protocol: (§2) To evaluate the inhibition of infection, promastigotes (5 × 10^6 cells) were first incubated with Compound 28 or AmpB (0, 1.0, 2.5 and 5.0 µg/mL in both cases) for 4 h at 24 °C; these were then used to infect murine macrophages (at a ratio of 10 parasites per macrophage) and incubated for 24 h at 37 °C in 5% CO2. Then, cells were fixed with 4% paraformaldehyde, washed, and stained with Giemsa. The percentage of infected macrophages and the number of recovered amastigotes were determined by counting 200 cells, in triplicate, using an optical microscope.

Data set [4] in a line: Cytotoxicity in mammalian cells (MTT). The format is cell-based. As to conditions: mouse; murine macrophages, 48 h at 37 °C in 5% CO2, MTT, mean ± standard deviation. The method, then:
as §1

Data set [5] relates to L. braziliensis-infected macrophages. The experiment in a line: Treatment of infected macrophages. The format is cell-based, Leishmania braziliensis. As to conditions: 48 h at 37 °C; for Number of Amastigotes per Cell after treatment: untreated 10.3; for Percentage of Infected Macrophages after Treatment: untreated 92.8. The method, then:
Murine macrophages (5 × 10^5 cells) were plated on round glass coverslips in 24-well plates in RPMI 1640 medium with added 20% FBS and 20 mmol/L L-glutamine at pH 7.4 and incubated for 24 h at 37 °C in 5% CO2. Promastigotes were added to the wells (at a ratio of 10 parasites per macrophage), and cultures were incubated for 48 h at 37 °C in a 5% CO2 environment. Free parasites were removed by extensive washing with RPMI 1640 medium, and the infected macrophages were treated with Compound 28 or AmpB (0, 1.0, 2.5 and 5.0 µg/mL in both cases) for 48 h at 37 °C in 5% CO2.
as §2

The test system of data set [6] is L. braziliensis promastigotes. The data set can be described thus: ROS production in promastigotes (H2DCFDA). It counts as cell-based, Leishmania braziliensis. As to conditions: H2O2-incubated promastigotes. The method, then: After treatment with Compound 28 (at a concentration corresponding to one IC50 value) for 48 h at 24 °C, L. braziliensis promastigotes were washed with PBS, and the parasite concentration was adjusted to 3 × 10^6 cells per well. H2DCFDA (Sigma-Aldrich, St. Louis, MO, USA) was then added and incubated for 30 min in the dark, and samples were read in a fluorometric microplate reader (FLx800, BioTek Instruments, Winooski, VT, USA) with excitation and emission wavelengths of 485 and 528 nm, respectively. Parasites that were untreated or treated with Compound 28 and not labeled with the fluorescent probe were used as the blank.
Figure 4 ΔΨm and ROS production in Leishmania after exposure to Compound 28. Leishmania braziliensis promastigotes were not exposed (negative control) or exposed to Compound 28 (at a concentration corresponding to the IC50 value) for 48 h. (A) Depolarization of ΔΨm was evaluated using the JC-1 fluorescent probe. Samples were analyzed fluorometrically, and the results are expressed as the ratio of red/green fluorescence. FCCP ([…]) was used as a positive control. (B) ROS production was evaluated using the H2DCFDA probe. The fluorescence intensity was measured by fluorimetry, and the results are expressed as the fold increase in the ROS level compared with the non-treated control. H2O2-treated parasites were used as a positive control. […]

Data set [7] deals with L. braziliensis-infected macrophages. The data set can be described thus: ROS levels in Leishmania-infected macrophages (H2DCFDA). It counts as cell-based, Leishmania braziliensis. As to conditions: H2O2 0.02 µg/mL (0.5 µmol/L). The method, then: Macrophages (1 × 10^6 cells/mL) were incubated in 96-well culture plates (Nunc, Nunclon, Roskilde, Denmark) and infected with L. braziliensis promastigotes (at a ratio of 10 parasites per cell). The infected macrophages were either left untreated or treated with Compound 28 (at a concentration of 5.0 µg/mL) for 48 h at 37 °C in 5% CO2. The cells were washed with PBS and incubated with 20 μmol/L H2DCFDA (Molecular Probes, Eugene, Oregon, USA) for 30 min in the dark. The fluorescence intensity was measured using a spectrofluorometer (FLx800; BioTek Instruments, Winooski, VT, USA) at 485 nm excitation and 528 nm emission. As a positive control, the infected macrophages were incubated with H2O2 at a concentration of 0.02 µg/mL (0.5 µmol/L). Parasites that were untreated with Compound 28 and not labeled with the fluorescent probe were used as the sample blank.
Figure 3 Production of ROS in L. braziliensis-infected macrophages treated with Compound 28. Leishmania braziliensis-infected macrophages (1 × 10^5 cells) were incubated with Compound 28 (5.0 µg/mL) for 48 h at 37 °C in a 5% CO2 environment. Subsequently, 2′,7′-dichlorodihydrofluorescein diacetate (H2DCFDA, 9.7 μg/mL) was added for 30 min under dark conditions. The fluorescence levels were measured in a spectrofluorometer at 485/528 nm. H2O2 (0.5 µmol/L) was used as a positive control. […]

For data set [8], the system named is Leishmania braziliensis promastigotes. The data set can be described thus: Depolarization of mitochondrial membrane potential (ΔΨm), JC-1. The format is cell-based. The settings on record: FCCP 1.3 µg/mL (5.0 µmol/L) for 20 min; non-treated parasites 7.2. The protocol: Leishmania braziliensis promastigotes (1 × 10^7 cells/mL) were treated with compound 28 (at a concentration corresponding to one IC50 value) for 48 h at 24 °C. The parasites (3 × 10^6 cells/mL) were then labeled with JC-1 (5 µg/mL, Sigma-Aldrich, St. Louis, MO, USA) for 30 min at 37 °C. After washing twice with PBS to remove the non-internalized dye, the samples were added to a black 96-well plate, and the ΔΨm was analyzed in a spectrofluorometer (FLx800, BioTek Instruments, Winooski, VT, USA) with an excitation filter of 485 nm and emission wavelength of 528 nm and […] to measure the green and red fluorescence, respectively. The ΔΨm was determined using the ratio between the red/green fluorescence intensity. Parasites that were exposed to 1.3 µg/mL (5.0 µmol/L) of FCCP (Sigma-Aldrich, St. Louis, MO, USA) for 20 min were used as a control. […]
Figure 4 ΔΨm and ROS production in Leishmania after exposure to Compound 28. […] (A) Depolarization of ΔΨm was evaluated using the JC-1 fluorescent probe. Samples were analyzed fluorometrically, and the results are expressed as the ratio of red/green fluorescence. […] (B) ROS production was evaluated using the H2DCFDA probe. The fluorescence intensity was measured by fluorimetry, and the results are expressed as the fold increase in the ROS level compared with the non-treated control. […]

Setting [9] is: parasites pre-incubated with 2.5 µg/mL at 24 °C.
Setting [10] is: parasites pre-incubated with 5.0 µg/mL at 24 °C.

Converted amounts (≈) assume the structure as drawn.

On to `C[C@@H]1[C@H](O)[C@@H](C)/C=C/C=C/C=C/C=C/C=C/C=C/C=C/[C@H](O[C@@H]2O[C@H](C)[C@@H](O)[C@H](N)[C@@H]2O)C[C@@H]2O[C@](O)(C[C@@H](O)C[C@@H](O)[C@H](O)CC[C@@H](O)C[C@@H](O)CC(=O)O[C@H]1C)C[C@H](O)[C@H]2C(=O)O` [Amphotericin B, amphotericin B, reference compound], for which, in data set [1] (CC50 murine macrophages / IC50 axenic amastigotes), the “Selectivity index (SI), ratio CC50/IC50, axenic amastigotes” value worked out at 6.8. The IC50 (commonly the concentration that gives 50% inhibition) in data set [1] (Leishmania braziliensis, 48 h, 48 h at 24 °C, MTT, mean ± standard deviation) worked out at 1.3 ± 0.4 µg/mL (≈ 1.41 µM); in data set [2] (Leishmania braziliensis, 48 h at 24 °C, MTT, mean ± standard deviation), 0.974 ± 0.2 µg/mL (≈ 1.05 µM). Besides, in data set [2] (CC50 murine macrophages / IC50 promastigotes), the “Selectivity index (SI), ratio CC50/IC50, promastigotes” value was found to be 9.1. Besides, the “Number of Amastigotes per Cell using pre-incubated parasites” value worked out at 6.5 in data set [3] (setting [9]) and 5.3 in data set [3] (setting [10]). For the same molecule, the “Percentage of Infected Macrophages Using Pre-Incubated Parasites” value in data set [3] (setting [9]) came to 67.6%; in data set [3] (setting [10]), 51.4%. Moreover, the CC50 (as a rule, the concentration giving 50% cytotoxicity) at 48 h in data set [4] is 8.9 ± 0.8 µg/mL (≈ 9.63 µM). The results for the “Number of Amastigotes per Cell after treatment” value in data set [5] (1.0 µg/mL), in data set [5] (2.5 µg/mL) and in data set [5] (5.0 µg/mL) were 4.2, 3.5 and 1.8, respectively. Moreover, the figures for the “Percentage of Infected Macrophages after Treatment” value in data set [5] (1.0 µg/mL), in data set [5] (2.5 µg/mL) and in data set [5] (5.0 µg/mL) were 39.1%, 27.6% and 19.8%, respectively.
As to `OO` [Compound H2O2, H2O2, reference compound], in data set [6], the “Fold increase in ROS levels compared with untreated parasites (positive control)” value worked out at 1.6 fold. Besides, the “Increase in ROS production in infected cells (positive control)” value in data set [7] turned out to be 41.4%.
With `N#CC(C#N)=NNc1ccc(OC(F)(F)F)cc1` [FCCP, carbonyl cyanide-p-trifluoromethoxyphenylhydrazone, reference compound], the “ΔΨm, JC-1 ratio of red/green fluorescence (positive control)” value in data set [8] amounted to 3.4.

The values above are taken from publication PMC10459042, “Synthesis of 1,2,3-Triazole-Containing Methoxylated Cinnamides and Their Antileishmanial Activity against the Leishmania braziliensis Species” (Pharmaceuticals, 2023).
